{"source": "patent US20210255193A1", "about": "“LYSINE REACTIVE PROBES AND USES THEREOF” (The Scripps Research Institute, priority 2017, published 2021)", "experiment_in_all_cases": "competitive isoTOP-ABPP", "format_in_all_cases": "binding", "key": {"[1]": {"molecular_target": "T1, TSTA3 GDP-L-fucose synthase (Homo sapiens, UniProt Q13630)", "T1 construct": "isoTOP-ABPP experiments performed in cell lysates (in vitro); endogenous in cells; host or cells: soluble proteome of human cancer cell lines (MDA-MB-231, Ramos, Jurkat)", "T1 sequence (Q13630 whole entry, the tested form may be a part)": "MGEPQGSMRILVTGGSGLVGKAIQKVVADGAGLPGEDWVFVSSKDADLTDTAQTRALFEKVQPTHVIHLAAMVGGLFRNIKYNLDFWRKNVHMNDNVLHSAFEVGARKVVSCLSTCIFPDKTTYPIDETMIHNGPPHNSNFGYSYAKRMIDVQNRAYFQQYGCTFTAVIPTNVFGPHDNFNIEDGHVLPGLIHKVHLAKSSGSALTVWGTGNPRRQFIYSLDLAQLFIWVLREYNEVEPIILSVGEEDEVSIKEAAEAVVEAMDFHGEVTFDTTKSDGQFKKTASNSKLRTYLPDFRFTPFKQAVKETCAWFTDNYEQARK", "details": "50 uM, 231 sol, in vitro; for R value (DMSO/fragment) for probe 1 labeling: Q13630_K108", "method_in_brief": "(§1)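 Fragments at 50 μM (activated esters) or 100 μM (guanidinylating agents) were incubated with 0.5 ml lysate before probe labeling. After 0.1 mM STP-alkyne for 1 h, samples were clicked to isotopically distinct TEV tags, and R taken as DMSO-over-compound MS1 peak-area ratio.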"}, "[2]": {"molecular_target": "T2, NT5DC1 5-nucleotidase domain-containing protein 1 (Homo sapiens, UniProt Q5TFE4)", "T2 construct": "isoTOP-ABPP experiments performed in cell lysates (in vitro); endogenous in cells; host or cells: soluble proteome of human cancer cell lines (MDA-MB-231; Ramos and Jurkat also prepared)", "T2 sequence (Q5TFE4 1-455)": "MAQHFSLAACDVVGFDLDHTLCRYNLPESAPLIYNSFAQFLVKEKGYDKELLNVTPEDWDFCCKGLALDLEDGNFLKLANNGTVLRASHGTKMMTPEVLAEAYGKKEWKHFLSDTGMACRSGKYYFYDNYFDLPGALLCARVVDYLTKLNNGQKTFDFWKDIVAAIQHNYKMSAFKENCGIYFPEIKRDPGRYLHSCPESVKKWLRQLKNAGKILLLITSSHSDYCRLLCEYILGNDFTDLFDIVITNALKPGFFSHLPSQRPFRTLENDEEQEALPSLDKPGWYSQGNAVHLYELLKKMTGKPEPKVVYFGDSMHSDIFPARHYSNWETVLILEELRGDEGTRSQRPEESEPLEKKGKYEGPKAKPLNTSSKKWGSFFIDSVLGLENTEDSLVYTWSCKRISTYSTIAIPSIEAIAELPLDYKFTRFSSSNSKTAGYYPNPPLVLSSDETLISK", "details": "50 uM, 231 sol, in vitro; for R value (DMSO/fragment) for probe 1 labeling: Q5TFE4_K123", "method_in_brief": "as §1"}, "[3]": {"molecular_target": "T3, RPS10 40S ribosomal protein S10 (Homo sapiens, UniProt P46783)", "T3 construct": "isoTOP-ABPP experiments performed in cell lysates (in vitro); endogenous in cells; host or cells: soluble proteome of human cancer cell lines (MDA-MB-231; Ramos and Jurkat also prepared)", "details": "50 uM, 231 sol, in vitro; for R value (DMSO/fragment) for probe 1 labeling: P46783_K139", "method_in_brief": "as §1"}, "[4]": {"molecular_target": "T4, AKR1C3 Aldo-keto reductase family 1 member C3 (Homo sapiens, UniProt P42330)", "T4 construct": "isoTOP-ABPP experiments performed in cell lysates (in vitro); endogenous in cells; host or cells: soluble proteome of human cancer cell lines (MDA-MB-231; Ramos and Jurkat also prepared)", "T4 sequence (P42330 1-323)": "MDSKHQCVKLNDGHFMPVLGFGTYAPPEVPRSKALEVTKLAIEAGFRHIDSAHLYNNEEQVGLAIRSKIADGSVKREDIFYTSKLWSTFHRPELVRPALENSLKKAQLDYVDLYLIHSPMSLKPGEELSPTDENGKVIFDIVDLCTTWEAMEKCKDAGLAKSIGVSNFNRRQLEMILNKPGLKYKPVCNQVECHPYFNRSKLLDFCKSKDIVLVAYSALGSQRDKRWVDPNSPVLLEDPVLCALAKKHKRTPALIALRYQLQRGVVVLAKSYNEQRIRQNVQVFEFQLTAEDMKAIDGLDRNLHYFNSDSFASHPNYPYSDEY", "details": "50 uM, in vitro; for isoTOP-ABPP reactivity ratio at lysine P42330_K270: 231 sol; for isoTOP-ABPP ratio (R) at liganded lysine P42330_K270: sol, 231", "method_in_brief": "as §1"}, "[5]": {"molecular_target": "T5, ARL6IP1 ADP-ribosylation factor-like protein 6-interacting (Homo sapiens, UniProt Q15041)", "T5 construct": "isoTOP-ABPP experiments performed in cell lysates (in vitro); endogenous in cells; host or cells: soluble proteome of human cancer cell lines (MDA-MB-231; Ramos and Jurkat also prepared)", "T5 sequence (Q15041 whole entry)": "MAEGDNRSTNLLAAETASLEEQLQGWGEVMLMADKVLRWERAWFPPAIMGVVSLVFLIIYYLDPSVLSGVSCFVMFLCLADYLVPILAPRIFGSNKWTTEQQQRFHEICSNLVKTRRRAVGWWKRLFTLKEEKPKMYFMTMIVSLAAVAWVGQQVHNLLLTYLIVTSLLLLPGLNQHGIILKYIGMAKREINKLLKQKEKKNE", "details": "50 uM, in vitro; for isoTOP-ABPP reactivity ratio at lysine Q15041_K188: 231 sol", "method_in_brief": "as §1"}}, "data": [{"smiles": "O=C(CCc1cn(-c2ccccc2)nc1-c1ccccc1)Oc1c(F)c(F)c(F)c(F)c1F", "note": "[fragment 19, Pentafluorophenyl 3-(1,3-diphenyl-1H-pyrazol-4-yl)propanoate]", "values": [{"measurement": "R value (DMSO/fragment) for probe 1 labeling", "setting": "[1]", "value": 0.8}, {"measurement": "R value (DMSO/fragment) for probe 1 labeling", "setting": "[2]", "value": 20.0}, {"measurement": "R value (DMSO/fragment) for probe 1 labeling", "setting": "[3]", "value": 1.0}]}, {"smiles": "Cn1cc(CC(=O)Oc2c(F)c(F)c(F)c(F)c2F)c2ccccc21", "note": "[fragment 22, Pentafluorophenyl 2-(1-methyl-1H-indol-3-yl)acetate]", "values": [{"measurement": "R value (DMSO/fragment) for probe 1 labeling", "setting": "[1]", "value": 1.1}, {"measurement": "R value (DMSO/fragment) for probe 1 labeling", "setting": "[3]", "value": 0.9}]}, {"smiles": "COc1cc(CCC(=O)Oc2c(F)c(F)c(F)c(F)c2F)cc(OC)c1OC", "note": "[fragment 23, Pentafluorophenyl 3-(3,4,5-trimethoxyphenyl)propanoate]", "values": [{"measurement": "R value (DMSO/fragment) for probe 1 labeling", "setting": "[1]", "value": 1.0}, {"measurement": "R value (DMSO/fragment) for probe 1 labeling", "setting": "[2]", "value": 1.5}]}, {"smiles": "O=C(CCc1coc2cc(F)ccc2c1=O)Oc1c(F)c(F)c(F)c(F)c1F", "note": "[fragment 26, Pentafluorophenyl 3-(7-fluoro-4-oxo-4H-chromen-3-yl)propanoate]", "values": [{"measurement": "isoTOP-ABPP reactivity ratio at lysine Q13630_K108", "setting": "[1]", "value": 1.4}, {"measurement": "isoTOP-ABPP reactivity ratio at lysine P46783_K139", "setting": "[3]", "value": 1.0}]}, {"smiles": "O=C(CN1C(=O)c2ccccc2C1=O)Oc1c(F)c(F)c(F)c(F)c1F", "note": "[fragment 27, Pentafluorophenyl 2-(1,3-dioxoisoindolin-2-yl)acetate]", "values": [{"measurement": "isoTOP-ABPP reactivity ratio at lysine P42330_K270", "setting": "[4]", "value": 2.7}, {"measurement": "isoTOP-ABPP reactivity ratio at lysine Q13630_K108", "setting": "[1]", "value": 4.6}]}, {"smiles": "CCn1cc(C(=O)Oc2c(F)c(F)c(F)c(F)c2F)c(=O)c2ccc(C)nc21", "note": "[fragment 28, Pentafluorophenyl 1-ethyl-7-methyl-4-oxo-1,4-dihydro-1,8-naphthyridine-3-carboxylate]", "values": [{"measurement": "isoTOP-ABPP reactivity ratio at lysine P42330_K270", "setting": "[4]", "value": 1.8}, {"measurement": "isoTOP-ABPP reactivity ratio at lysine Q13630_K108", "setting": "[1]", "value": 1.0}, {"measurement": "isoTOP-ABPP reactivity ratio at lysine Q5TFE4_K123", "setting": "[2]", "value": 1.2}]}, {"smiles": "O=C(CCc1cn(-c2ccccc2)nc1-c1ccccc1)Oc1ccc([N+](=O)[O-])cc1[N+](=O)[O-]", "note": "[fragment 29, 2,4-Dinitrophenyl 3-(1,3-diphenyl-1H-pyrazol-4-yl)propanoate]", "values": [{"measurement": "isoTOP-ABPP reactivity ratio at lysine P42330_K270", "setting": "[4]", "value": 2.1}, {"measurement": "isoTOP-ABPP reactivity ratio at lysine Q13630_K108", "setting": "[1]", "value": 1.1}, {"measurement": "isoTOP-ABPP reactivity ratio at lysine Q5TFE4_K123", "setting": "[2]", "value": 1.2}, {"measurement": "isoTOP-ABPP reactivity ratio at lysine P46783_K139", "setting": "[3]", "value": 20.0}]}, {"smiles": "O=C(Oc1ccc([N+](=O)[O-])cc1[N+](=O)[O-])C(c1ccccc1)c1ccccc1", "note": "[fragment 30, 2,4-Dinitrophenyl 2,2-diphenylacetate]", "values": [{"measurement": "isoTOP-ABPP reactivity ratio at lysine P46783_K139", "setting": "[3]", "value": 1.2}]}, {"smiles": "Cn1cc(CC(=O)Oc2ccc([N+](=O)[O-])cc2[N+](=O)[O-])c2ccccc21", "note": "[fragment 32, 2,4-Dinitrophenyl 2-(1-methyl-1H-indol-3-yl)acetate]", "values": [{"measurement": "isoTOP-ABPP reactivity ratio at lysine Q15041_K188", "setting": "[5]", "value": 5.9}]}, {"smiles": "COc1cc(CCC(=O)Oc2ccc([N+](=O)[O-])cc2[N+](=O)[O-])cc(OC)c1OC", "note": "[fragment 33, 2,4-Dinitrophenyl 3-(3,4,5-trimethoxyphenyl)propanoate]", "values": [{"measurement": "isoTOP-ABPP reactivity ratio at lysine Q15041_K188", "setting": "[5]", "value": 1.3}, {"measurement": "isoTOP-ABPP reactivity ratio at lysine P42330_K270", "setting": "[4]", "value": 1.0}, {"measurement": "isoTOP-ABPP reactivity ratio at lysine Q13630_K108", "setting": "[1]", "value": 1.2}, {"measurement": "isoTOP-ABPP reactivity ratio at lysine P46783_K139", "setting": "[3]", "value": 0.7}]}, {"smiles": "O=C(Oc1ccc([N+](=O)[O-])cc1[N+](=O)[O-])C1CCN(C(=O)OCc2ccccc2)CC1", "note": "[fragment 34, 1-Benzyl 4-(2,4-dinitrophenyl) piperidine-1,4-dicarboxylate]", "values": [{"measurement": "isoTOP-ABPP ratio (R) at liganded lysine P42330_K270", "setting": "[4]", "value": 1.1}]}, {"smiles": "O=C(Oc1ccc([N+](=O)[O-])cc1[N+](=O)[O-])c1ccc2ccccc2n1", "note": "[fragment 35, 2,4-Dinitrophenyl quinoline-2-carboxylate]", "values": [{"measurement": "isoTOP-ABPP ratio (R) at liganded lysine Q15041_K188", "setting": "[5]; sol, 231", "value": 1.4}, {"measurement": "isoTOP-ABPP ratio (R) at liganded lysine P42330_K270", "setting": "[4]", "value": 0.6}]}]}
